Values of other authors, collected in patent publication US7317103B2, “Imaging agents for diagnosis of Parkinson's disease” (Molecular Insight Pharmaceuticals, Inc., priority 2000, dated 2008).

Details: Tc-99m labeled tropane analog, Kung et al

Compound: CN1[C@H]2CC[C@@H]1[C@@H](CN(CC[S-])CC[N-]CC[S-])[C@@H](c1ccc(Cl)cc1)C2.[O]=[99Tc+4] [TRODAT]
- absolute brain uptake: very low
